Assay results taken from the NIST ThermoML archive (doi:10.1016/j.jct.2017.02.023).

Columns and labels:
[1] = refractive index (Na D-line) (dimensionless); xn = mol fraction of the nth substance listed; details: 81.5 kPa, Liquid, Standard Abbe refractometry
[2] = xn = mol fraction of the nth substance listed; details: 81.5 kPa, Liquid, Vibrating tube method

CNC1CCCCC1 [N-methylcyclohexylamine] + CC(C)O
Details	mass density, 298.15 K [kg/m3]	mass density, 308.15 K [kg/m3]	mass density, 318.15 K [kg/m3]	mass density, 328.15 K [kg/m3]	refractive index, 298.15 K	refractive index, 308.15 K	refractive index, 318.15 K	refractive index, 328.15 K
[1], x2 = 0	–	–	–	–	1.45306	1.44812	1.4431	1.43809
[1], x2 = 0.159	–	–	–	–	1.4471	1.44293	1.43862	1.43418
[1], x2 = 0.2745	–	–	–	–	1.44224	1.43814	1.43386	1.42939
[1], x2 = 0.3856	–	–	–	–	1.43655	1.43263	1.42854	1.4242
[1], x2 = 0.4867	–	–	–	–	1.43021	1.42642	1.42248	1.41824
[1], x2 = 0.5738	–	–	–	–	1.42372	1.41996	1.41606	1.41185
[1], x2 = 0.6539	–	–	–	–	1.41688	1.41311	1.4092	1.40495
[1], x2 = 0.7253	–	–	–	–	1.41003	1.40629	1.40239	1.39812
[1], x2 = 0.7904	–	–	–	–	1.40314	1.39948	1.39565	1.39141
[1], x2 = 0.85	–	–	–	–	1.39619	1.39265	1.38892	1.38471
[1], x2 = 0.904	–	–	–	–	1.38928	1.38579	1.38209	1.37787
[1], x2 = 0.9541	–	–	–	–	1.38224	1.37859	1.37474	1.37035
[2], x2 = 0	865.2	856.57	847.67	838.68	–	–	–	–
[2], x2 = 0.159	860.12	851.49	842.65	833.57	–	–	–	–
[2], x2 = 0.2745	855.75	847.1	838.18	828.82	–	–	–	–
[2], x2 = 0.3856	850.26	841.55	832.63	823.19	–	–	–	–
[2], x2 = 0.4867	843.79	835.1	826.14	816.62	–	–	–	–
[2], x2 = 0.5738	836.95	828.24	819.27	809.59	–	–	–	–
[2], x2 = 0.6539	829.55	820.8	811.84	802	–	–	–	–
[2], x2 = 0.7253	822.01	813.27	804.23	794.36	–	–	–	–
[2], x2 = 0.7904	814.28	805.54	796.65	786.58	–	–	–	–
[2], x2 = 0.85	806.34	797.64	788.79	778.81	–	–	–	–
[2], x2 = 0.904	798.29	789.69	780.82	770.72	–	–	–	–
[2], x2 = 0.9541	789.83	781.27	772.4	762.26	–	–	–	–

CNC1CCCCC1 [N-methylcyclohexylamine] + CCCCCCC(C)O
Details	mass density, 298.15 K [kg/m3]	mass density, 308.15 K [kg/m3]	mass density, 318.15 K [kg/m3]	mass density, 328.15 K [kg/m3]	refractive index, 298.15 K	refractive index, 308.15 K	refractive index, 318.15 K	refractive index, 328.15 K
[1], x2 = 0	–	–	–	–	1.45306	1.44812	1.4431	1.43809
[1], x2 = 0.0727	–	–	–	–	1.45123	1.44643	1.44156	1.43676
[1], x2 = 0.148	–	–	–	–	1.44931	1.44459	1.43978	1.43507
[1], x2 = 0.2246	–	–	–	–	1.44739	1.44272	1.43794	1.43327
[1], x2 = 0.3025	–	–	–	–	1.44545	1.44084	1.43612	1.43148
[1], x2 = 0.3826	–	–	–	–	1.44348	1.43892	1.43425	1.42963
[1], x2 = 0.4636	–	–	–	–	1.44143	1.43692	1.43233	1.42778
[1], x2 = 0.5484	–	–	–	–	1.43898	1.43456	1.43003	1.42554
[1], x2 = 0.6332	–	–	–	–	1.43641	1.43207	1.42763	1.42323
[1], x2 = 0.7205	–	–	–	–	1.4337	1.42942	1.42503	1.42073
[1], x2 = 0.8128	–	–	–	–	1.43079	1.42658	1.42227	1.41802
[1], x2 = 0.9052	–	–	–	–	1.42779	1.42366	1.41941	1.41523
[2], x2 = 0	865.2	856.57	847.67	838.68	–	–	–	–
[2], x2 = 0.0727	861.37	852.86	844.07	835.18	–	–	–	–
[2], x2 = 0.148	857.59	849.18	840.45	831.62	–	–	–	–
[2], x2 = 0.2246	853.95	845.6	836.92	828.14	–	–	–	–
[2], x2 = 0.3025	850.34	842.06	833.44	824.7	–	–	–	–
[2], x2 = 0.3826	846.62	838.42	829.86	821.17	–	–	–	–
[2], x2 = 0.4636	842.77	834.65	826.15	817.53	–	–	–	–
[2], x2 = 0.5484	838.61	830.58	822.16	813.61	–	–	–	–
[2], x2 = 0.6332	834.36	826.43	818.08	809.6	–	–	–	–
[2], x2 = 0.7205	829.99	822.17	813.9	805.49	–	–	–	–
[2], x2 = 0.8128	825.54	817.82	809.62	801.27	–	–	–	–
[2], x2 = 0.9052	821.3	813.66	805.52	797.23	–	–	–	–
